Test results: US20240156965A1, “DICHALCOGENIDE PRODRUGS” (Ludwig-Maximilians-Universitat Munchen, priority 2021, published 2024)
Where a chain is given by its changes, count along the chain named. Entries after “also recorded” stand apart in the source; their conditions may differ. Like-named read-outs stand apart in the source and are kept apart here.

Assays:
[1] = low concentration of GSH, within 20 minutes; cited from earlier work
[2] = Challenge with monothiol reductant GSH, cell-free fluorogenic cargo release; assay type: physicochemical; conditions: 10 μM probe; for sensitivity to GSH in GSH titration, signal F/F^TCEP: 3 h timepoint, GSH up to 10 mM; for cargo release when challenged with GSH / GSH system reductants: relevant cellular levels
From the text: (§1) This cell-free assay examined the stability of dichalcogenide-based reduction-triggered compounds of the invention when exposed to cellular monothiol reductant GSH, and its cellular partner reductants glutathione reductase (GR) and glutaredoxins (Grx1 and Grx2).
(§2) Assay Conditions: A black 96-well plate with black bottom was charged with solutions of fluorophore-releasing reduction-triggered probes that are compounds of the invention (P1, P2, P3, P6 and P7) or that are not compounds of the invention and reveal the performance of prior art systems (disulfide X26), reaching 100 μL final volume, 1% final DMSO, 10 μM probe, aq. TE buffer (pH 7.4), with the indicated concentrations of reductant (in FIG. 1a) or concentration ratios of reductant to probe (in FIG. 1b-d). TCEP (100 μM) was used as a quantitative reference reductant; and in the GR/GSH/Grx assays (FIG. 1c-d), GR was used at 20 nM, GSH at 100 μM, to maintain Grx in a reduced state suitable for challenging the probes without supplying a high concentration of either GSH or GR. Reaction mixtures were incubated at 37° C. for up to 6 h while measuring fluorescence intensity F over time, using a BMG Labtech FLUOstar Omega platereader (λexc=355 nm, λem=530 nm).
(§3) Data Representation: F^TCEP is the maximum possible fluorescence increase, corresponding to complete reduction-triggered cargo release by the TCEP incubation. F/F^TCEP thus gives the fluorescence intensity, as a fraction of the maximum possible fluorescence signal, at the indicated times.

[3] = system: glutaredoxins (Grx1 and Grx2) with GR and GSH; assay: Challenge with GR/GSH/Grx system reductants, cell-free; assay type: biochemical; conditions: 10 μM probe, GR 20 nM, GSH 100 μM, Grx1 or Grx2 up to physiological concentrations
From the text: as §1, §2, §3

[4] = target: T1, human recombinant thioredoxin reductase 1 (TrxR1) (Homo sapiens, UniProt Q16881); assay: Enzymatic activation assay with TrxR1, cell-free; assay type: biochemical; conditions: 10 μM probe; for cargo release on exposure to TrxR1 (timecourse): 20 nM TrxR1, 100 μM NADPH, 37 °C; for response in TrxR titration: TrxR down to 5 nM
T1 sequence (Q16881 1-499 isoform Q16881-5): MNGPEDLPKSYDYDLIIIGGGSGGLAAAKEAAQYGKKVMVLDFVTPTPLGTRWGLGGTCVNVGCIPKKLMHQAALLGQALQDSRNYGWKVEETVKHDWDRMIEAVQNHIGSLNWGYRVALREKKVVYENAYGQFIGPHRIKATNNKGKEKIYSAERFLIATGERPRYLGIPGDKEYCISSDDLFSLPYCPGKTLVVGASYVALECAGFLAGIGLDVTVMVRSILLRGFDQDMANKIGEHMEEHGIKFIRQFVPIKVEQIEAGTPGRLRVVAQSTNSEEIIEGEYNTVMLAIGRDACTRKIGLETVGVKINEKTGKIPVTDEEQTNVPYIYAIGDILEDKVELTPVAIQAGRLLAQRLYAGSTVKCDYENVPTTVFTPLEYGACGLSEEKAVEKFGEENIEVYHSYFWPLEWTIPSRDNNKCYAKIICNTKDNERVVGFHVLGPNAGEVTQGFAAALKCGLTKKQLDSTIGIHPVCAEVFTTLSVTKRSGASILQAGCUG
Protocol: (§4) This cell-free assay (see FIG. 2) examined the processing of dichalcogenide-based fluorophore-releasing reduction-triggered probes that are compounds of the invention, by components of the cellular thioredoxin system.
(§5) Assay conditions and data representation: A black 96-well plate with black bottom was charged with solutions of probes (P1, P2, P3, P6, P7) to reach final reaction conditions: 100 μL of aq. TE buffer (pH 7.4), 10 μM probe concentration, 1 vol % DMSO, and 20 nM of human recombinant thioredoxin reductase 1 (TrxR1; in FIG. 1a), or 20 nM of either TrxR1 or thioredoxin reductase Sec498Cys mutant (TrxR1 U498C or “mut”; in FIG. 1b), or the indicated probe-to-reductant concentration ratios of TrxR1 (in FIG. 1c) or human recombinant thioredoxin 1 (Trx1; in FIG. 1d); with the final step being the addition of NADPH (100 μM final). The reaction mixtures were incubated at 37° C. for 3 to 6 h as shown with timecourse measurements of fluorescence as for FIG. 1. Data representation as for FIG. 1.

[5] = target: T2, thioredoxin reductase Sec498Cys mutant (TrxR1 U498C) (Homo sapiens, UniProt Q16881); assay: Enzymatic activation assay with TrxR1 Sec498Cys mutant, cell-free; assay type: biochemical; conditions: 10 μM probe, 20 nM mutant, 100 μM NADPH
T2 sequence (Q16881 with tags, fused parts or gaps isoform Q16881-5): T1 sequence (Q16881 1-499 isoform Q16881-5) with U498C
Protocol: as §4, §5

[6] = target: T3, human recombinant thioredoxin 1 (Trx1) (Homo sapiens, UniProt P10599); assay: Trx1 titration in Trx1/TrxR1 system, cell-free; assay type: biochemical; conditions: 10 μM probe
T3 sequence (P10599 2-105 limits assumed): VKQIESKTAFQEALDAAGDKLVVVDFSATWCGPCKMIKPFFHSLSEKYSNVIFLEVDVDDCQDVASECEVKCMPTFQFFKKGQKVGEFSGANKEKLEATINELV
Protocol: as §4, §5

[7] = system: HeLa cervical cancer cell line; assay: Cellular reduction assay in HeLa cells (fluorescence timecourse); assay type: cell-based, human; conditions: time- and dose-dependence
Protocol: (§6) Assay Conditions: Cells were cultured under standard conditions (Gao, L. et al. Cell Chemical Biology 2021, 28, 1-14. https://doi.org/10.1016/j.chembiol.2020.11.007), left to adhere for 24 h, then compounds were added to 100 μM with 1% vol DMSO. Fluorescence timecourse measurements were acquired as in the chemoreductant assay, with all conditions in triplicates.
(§7) Data Representation: F.I.(t) is the fluorescence intensity signal increase as compared to time zero signal (fluorescence intensity immediately following compound addition, before probe activation could occur), in arbitrary units although with the same detection settings for all probes releasing the same cargo. This corresponds to reduction-triggered cargo release.

[8] = system: A549 lung cancer cell line; assay: Cellular reduction assay in A549 cells; assay type: cell-based, human; conditions: time- and dose-dependence
Protocol: as §6, §7

[9] = system: selenium-dependent reductases in cells; assay: Cellular reduction assay with selenium starvation or supplementation; assay type: cell-based
Protocol: as §6, §7

TrxR1 = target: T4, TrxR1 (Mus musculus, UniProt Q9JMH6); assay: Cellular reduction assay in MEF cells with TrxR1 knockout; assay type: cell-based; conditions: MEF wildtype vs TrxR1 knockout
T4 construct: P6 is processed by native (selenium-incorporating) TrxR1 in cells; endogenous in cells; host or cells: MEF wildtype and MEF with TrxR1 knockout
T4 sequence (Q9JMH6 1-499 isoform Q9JMH6-2): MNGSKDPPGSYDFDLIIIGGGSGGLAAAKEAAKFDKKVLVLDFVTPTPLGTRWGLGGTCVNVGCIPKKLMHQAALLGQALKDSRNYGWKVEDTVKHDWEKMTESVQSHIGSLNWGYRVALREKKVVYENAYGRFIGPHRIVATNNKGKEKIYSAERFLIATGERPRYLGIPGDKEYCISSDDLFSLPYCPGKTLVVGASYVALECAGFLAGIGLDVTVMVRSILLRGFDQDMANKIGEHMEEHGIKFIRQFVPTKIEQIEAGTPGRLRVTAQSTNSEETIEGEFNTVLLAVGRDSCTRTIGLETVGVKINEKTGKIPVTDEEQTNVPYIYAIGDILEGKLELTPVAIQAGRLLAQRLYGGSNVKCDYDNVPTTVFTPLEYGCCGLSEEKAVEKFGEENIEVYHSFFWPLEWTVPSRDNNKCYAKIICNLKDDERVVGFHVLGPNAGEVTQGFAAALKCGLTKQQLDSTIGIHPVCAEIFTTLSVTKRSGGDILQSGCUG
Protocol: as §6, §7

TrxR = target: T5, TrxR (Homo sapiens, UniProt Q16881); assay: Cellular reduction assay in HeLa cells with chemical TrxR inhibition (TRi compounds); assay type: cell-based
T5 construct: P6 is processed by native (selenium-incorporating) TrxR1 in cells; endogenous in cells; host or cells: HeLa
T5 sequence (Q16881 1-499 isoform Q16881-5): T1 sequence (Q16881 1-499 isoform Q16881-5)
Protocol: as §6, §7

HeLa cells = assay: In vitro cell viability assay (resazurin); assay type: cell-based, human; conditions: 48 h incubation, read-out: EC50 (antiproliferation / cell viability)
Protocol: Assay Conditions: HeLa cells were cultured under standard conditions (Gao, L. et al. Cell Chemical Biology 2021, 28, 1-14. https://doi.org/10.1016/j.chembiol.2020.11.007), left to adhere for 24 h, then compounds were added from DMSO stock solution and adjusted to 1% vol DMSO. Cells were further incubated for 48 h, then 0.20 volume equivalents of a solution of resazurin in PBS (0.15 mg/mL) were added and incubated for 3 hours, then fluorescence (ex 544 nm, em 590 nm) was detected on a fluorescence platereader. Cell viability (%) is calculated from the fluorescence values, relative to a control experiment with no compound added.

## COc1cccc2ccc3c(c12)Oc1cc(NC(=O)OCC[Se][Se]CCO)ccc1C31OC(=O)c2ccccc21 (centres unmarked) [E2]
[1]
  fluorescence signal with GSH: strong signal turn-on

## CN1CCN(C(=O)CCN(C(=O)Oc2ccc(Cl)cc2-c2nc3ccc(Cl)cc3c(=O)[nH]2)[C@H]2CCS[Se]C2)CC1 [P6]
[2]
  sensitivity to GSH in GSH titration, signal F/F^TCEP: completely insensitive
  cargo release when challenged with GSH / GSH system reductants: totally resisted releasing cargo
[3]
  triggering by GR/GSH/Grx systems: resist triggering
[4]
  cargo release on exposure to TrxR1 (timecourse): release their cargo rapidly; also recorded: release cargo very rapidly
  response in TrxR titration: excellently responsive; also recorded: sensitively
[5]
  cargo release by TrxR1 U498C mutant: do not respond to the mutant; also recorded: did not cause cargo release
[6]
  cargo release with increasing Trx1 at fixed TrxR1: identical release of cargo; also recorded: did not affect the outcomes
[7]
  fluorescence signal generation F.I.(t) in HeLa cells: strong time- and dose-dependent fluorescent signal increase; also recorded: generated strong fluorescent signal
[8]
  fluorescence signal generation in A549 cells: time- and dose-dependent fluorescence increase; also recorded: dose- and time-dependently generated signal
[9]
  effect of selenium starvation/supplementation on cellular signal generation: strongly suppressed by selenium starvation
TrxR1
  effect of TrxR1 knockout on cellular signal: almost entirely suppressed by knockout
TrxR
  effect of chemical TrxR inhibition on cellular signal: suppresses P6 signal generation; also recorded: almost entirely suppressed

## CN1CCN(C(=O)CCN(C(=O)Oc2ccc(Cl)cc2-c2nc3ccc(Cl)cc3c(=O)[nH]2)[C@H]2CC[Se]SC2)CC1 [P7]
[2]
  sensitivity to GSH in GSH titration, signal F/F^TCEP: very low sensitivity
  cargo release when challenged with GSH / GSH system reductants: high resistance to GSH challenge
[3]
  triggering by GR/GSH/Grx systems: resist triggering; also recorded: total resistance to Grx challenge
[4]
  cargo release on exposure to TrxR1 (timecourse): release their cargo rapidly; also recorded: release cargo very rapidly
  response in TrxR titration: excellently responsive; also recorded: sensitively
[5]
  cargo release by TrxR1 U498C mutant: do not respond to the mutant; also recorded: did not cause cargo release
[6]
  cargo release with increasing Trx1 at fixed TrxR1: identical release of cargo; also recorded: did not affect the outcomes
[7]
  fluorescence signal generation F.I.(t) in HeLa cells: strong time- and dose-dependent fluorescent signal increase; also recorded: generated strong fluorescent signal

## CN(C(=O)Oc1cc2c(c3ccccc13)[C@H](CCl)CN2C(=O)c1cc2cc(OCCCN3CCC3)ccc2[nH]1)[C@H]1CCS[Se]C1 [P8]
HeLa cells
  EC50: < 100 nM
HeLa cells; Homo sapiens, 48 h
  EC50: ~60 nM

## CNCCSSCCN(C)C(=O)Oc1ccc(Cl)cc1-c1nc2ccc(Cl)cc2c(=O)[nH]1 [X26, 4-chloro-2-(6-chloro-4-oxo-3,4-dihydroquinazolin-2-yl)phenyl methyl(2-((2-(methylamino)ethyl)disulfaneyl)ethyl)carbamate, reference compound]
[2]; subphysiological GSH 1 mM, TE buffer pH 7.4, 37 °C
  response to GSH-triggered release of fluorescent cargo PQ-OH (timecourse): rapidly and strongly affected; also recorded: rapid response
[7]
  fluorescence signal generation F.I.(t) in HeLa cells: also generated signal
[9]
  effect of selenium starvation/supplementation on cellular signal generation: not sensitive to selenium supplementation
